# Assay results taken from ChEMBL document CHEMBL5608179, “Triptonide induces apoptosis and inhibits the proliferation of ovarian cancer cells by activating the p38/p53 pathway and autophagy” (Bioorg Med Chem, 2024).
# How the values were obtained:
# A2780 [1] = assay: Cytotoxicity against human A2780 cells assessed as cell viability measured after 48 hrs by MTT assay; assay type: functional, cell-based; conditions: A2780, 48 h
# SK-OV-3 = assay: Cytotoxicity against human SK-OV-3 cells assessed as cell viability measured after 48 hrs by MTT assay; assay type: functional, cell-based; conditions: SK-OV-3, 48 h
# Huh-7 = assay: Cytotoxicity against human Huh-7 cells assessed as cell viability measured after 48 hrs by MTT assay; assay type: functional, cell-based; conditions: Huh-7, 48 h
# A2780 [2] = assay: Induction of apoptosis in human A2780 cells assessed as viable cells at 20 uM measured after 24 to 72 hrs by Annexin V-FITC/PI flow cytometry (reference value: 94.2%); assay type: functional; conditions: time 24-72 hrs, read-out: Activity
# A2780 [3] = assay: Induction of apoptosis in human A2780 cells assessed as early apoptotic cells at […] measured after 24 to 72 hrs by Annexin V-FITC/PI flow cytometry (reference value: 2.82%); assay type: functional; conditions: time 24-72 hrs
# A2780 [4] = assay: Induction of apoptosis in human A2780 cells assessed as late apoptotic cells at […] measured after 24 to 72 hrs by Annexin V-FITC/PI flow cytometry (reference value: 2.54%); assay type: functional; conditions: time 24-72 hrs
# A2780 [5] = assay: Induction of apoptosis in human A2780 cells assessed as necrotic cells at 20 uM measured after 24 to 72 hrs by Annexin V-FITC/PI flow cytometry (reference value: 0.39%); assay type: functional; conditions: time 24-72 hrs
# A2780 [6] = assay: Induction of cell cycle arrest in human A2780 cells assessed as accumulation of cells at G1 phase at 20 uM measured after 24 hrs by PI staining based Cell Cycle Analysis Kit (KeyGEN) (reference value: 54.2%); assay type: functional
# A2780 [7] = assay: Induction of cell cycle arrest in human A2780 cells assessed as accumulation of cells at S phase at 20 uM measured after 24 hrs by PI staining based Cell Cycle Analysis Kit (KeyGEN) (reference value: 15%); assay type: functional
# A2780 [8] = assay: Induction of cell cycle arrest in human A2780 cells assessed as accumulation of cells at G2 phase at 20 uM measured after 24 hrs by PI staining based Cell Cycle Analysis Kit (KeyGEN) (reference value: 24.5%); assay type: functional
# A2780 [9] = assay: Induction of apoptosis in human A2780 cells assessed as late apoptotic cells at 800 nM measured after 24 hrs by Annexin V-FITC/PI flow cytometry (reference value: 1.58%); assay type: functional
# A2780 [10] = assay: Induction of apoptosis in human A2780 cells assessed as necrotic cells at 800 nM measured after 24 hrs by Annexin V-FITC/PI flow cytometry (reference value: 0.18%); assay type: functional
# A2780 [11] = assay: Induction of apoptosis in human A2780 cells assessed as viable cells at 800 nM measured after 24 hrs by Annexin V-FITC/PI flow cytometry (reference value: 96.1%); assay type: functional; conditions: read-out: Activity
# A2780 [12] = assay: Induction of apoptosis in human A2780 cells assessed as early apoptotic cells at 800 nM measured after 24 hrs by Annexin V-FITC/PI flow cytometry (reference value: 2.17%); assay type: functional
structure (smiles),measurement,setting,value
O=c1[nH]cc(F)c(=O)[nH]1 [FLUOROURACIL],IC50,A2780 [1],3.93 µM
same,IC50,SK-OV-3,10.8 µM
same,IC50,Huh-7,28.5 µM
CC1=C(O)C(=O)C=C2C1=CC=C1[C@@]2(C)CC[C@@]2(C)[C@@H]3C[C@](C)(C(=O)O)CC[C@]3(C)CC[C@]12C [CELASTROL],IC50,A2780 [1],1.57 µM
C[S+]([O-])c1ccc(-c2nc(-c3ccc(F)cc3)c(-c3ccncc3)[nH]2)cc1 (stereo not given) [SB-203580],viability at 20 µM,A2780 [2],92%
same,Activity,A2780 [3],3.32%
same,Activity,A2780 [4],4.27%
same,Activity,A2780 [5],0.41%
same,Activity,A2780 [6],53.8%
same,Activity,A2780 [7],10%
same,Activity,A2780 [8],31.5%
C[C@@H]1[C@@]23CC[C@H]4[C@@](C)(CC[C@@]5(C)[C@@H]6C[C@](C)(C(=O)O)CC[C@]6(C)CC[C@]45C)[C@@H]2C[C@@H](O)[C@@]1(O)OC3,IC50,A2780 [1],> 60 µM
CC1(C)[C@@H](O)CC[C@]2(C)[C@H]3CC=C4[C@@H]5C[C@@]6(C)C[C@H](OC6=O)[C@]5(C)CC[C@@]4(C)[C@]3(C)CC[C@@H]12 [3-EPIABRUSLACTONE A],IC50,A2780 [1],> 60 µM
C[C@]12CCC[C@@]3(COC1=O)[C@@H]1CC[C@@H]4C[C@@]1(CC[C@@H]32)C[C@@]4(C)O,IC50,A2780 [1],> 60 µM
CC(=O)OC[C@]12[C@H](OC(C)=O)[C@H](OC(C)=O)[C@@H]3[C@@H](OC(C)=O)[C@@]14OC3(C)COC(=O)c1cccnc1CCC(C)C(=O)O[C@@H]([C@H](OC(=O)c1ccoc1)[C@@H]2OC(C)=O)C4(C)O (stereo not given in full),IC50,A2780 [1],> 60 µM
CC(=O)OC[C@]12[C@H](OC(C)=O)[C@H](OC(C)=O)[C@@H]3[C@@H](OC(C)=O)[C@@]14O[C@@]3(C)COC(=O)c1cccnc1CC[C@H](C)C(=O)O[C@@H]([C@H](OC(=O)c1ccccc1)[C@@H]2OC(C)=O)[C@]4(C)O,IC50,A2780 [1],> 60 µM
CC(C)c1ccc2c(c1O)CC[C@H]1C3=C(CC[C@]21C)C(=O)OC3 [TRIPTOPHENOLIDE],IC50,A2780 [1],> 60 µM
COc1cccc2c1C(=O)c1c(O)c3c(c(O)c1C2=O)C[C@@](O)(C(=O)CO)C[C@@H]3O[C@H]1C[C@H](N)[C@@H](O)[C@H](C)O1 [EPIRUBICIN],IC50,A2780 [1],1.28 µM
same,IC50,SK-OV-3,0.498 µM
same,IC50,Huh-7,0.495 µM
CO/C1=C\C(C)=C\[C@@H](C)[C@@H](O)[C@@H](C)C/C(C)=C/C=C/[C@H](OC)[C@@H]([C@@H](C)[C@@H](O)[C@H](C)[C@@]2(O)C[C@@H](O)[C@H](C)[C@@H](C(C)C)O2)OC1=O [BAFILOMYCIN A1],Activity,A2780 [9],2.27%
same,Activity,A2780 [10],0.43%
same,viability at 0.8 µM,A2780 [11],94%
same,Activity,A2780 [12],3.33%
C[C@@]1(C(=O)O)CC[C@]2(C)CC[C@]3(C)C4=CC(=O)c5c(cc(O)c(O)c5C=O)[C@]4(C)CC[C@@]3(C)[C@@H]2C1,IC50,A2780 [1],10.1 µM
